# In patent publication US20230143612A1 (Arbutus Biopharma Corporation, priority 2020, published 2023):
# Molecular target: PD-L1 His protein / PD-1 Fc protein (Homo sapiens, UniProt Q9NZQ7)
# Experiment: HTRF Assay (PD-1/PD-L1 interaction)
# Type: binding
# Conditions: PD-L1 His 6 nM, PD-1 Fc 6 nM
# Procedure, shortened: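 Compounds tested from 20 μM down to 0.001 μM (3-fold) against 6 nM PD-L1 His and 6 nM PD-1 Fc, 15 min room temperature incubation. Detection after 1 h at room temperature with Tb cryptate anti-6HIS and XL665 anti-human IgG reagents (mixture at 0.35 nM and 6.7 nM), HTRF signal.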
# Chain of PD-L1 His protein / PD-1 Fc protein (Q9NZQ7 19-238 limits assumed): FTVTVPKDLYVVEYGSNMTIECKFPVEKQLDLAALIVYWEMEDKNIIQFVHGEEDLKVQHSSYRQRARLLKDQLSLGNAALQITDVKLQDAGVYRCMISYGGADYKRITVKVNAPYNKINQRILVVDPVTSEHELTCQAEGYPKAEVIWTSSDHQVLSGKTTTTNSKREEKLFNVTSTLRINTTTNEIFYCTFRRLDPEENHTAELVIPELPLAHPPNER
row,SMILES,IC50
1,"O=C1CC[C@@H](CNCc2cnc3cc(-c4cccc(-c5cccc(-c6ccc7c(n6)OCCN(CCO)C7)c5Cl)c4Cl)ccn3c2=O)N1 [Example 268, (S)-8-(2,2′-Dichloro-3′-(4-(2-hydroxyethyl)-2,3,4,5-tetrahydropyrido[3,2-f][1,4]oxazepin-8-yl)-[1,1′-biphenyl]-3-yl)-3-((((5-oxopyrrolidin-2-yl)methyl)amino)methyl)-4H-pyrido[1,2-a]pyrimidin-4-one]",710 nM
2,"COC(=O)CNCc1c(C)nc2cc(-c3cccc(-c4cccc(-c5ccc(CNC[C@@H]6CCC(=O)N6)c(OC)n5)c4Cl)c3Cl)ccn2c1=O [Example 269, (S)-Methyl 2-(((8-(2,2′-dichloro-3′-(6-methoxy-5-((((5-oxopyrrolidin-2-yl)methyl)amino)methyl)pyridin-2-yl)-[1,1′-biphenyl]-3-yl)-2-methyl-4-oxo-4H-pyrido[1,2-a]pyrimidin-3-yl)methyl)amino)acetate]",1 nM
3,"COc1nc(-c2cccc(-c3cccc(-c4ccn5c(=O)c(CNC[C@@H](O)CC(=O)O)cnc5c4)c3Cl)c2Cl)cc(F)c1CNC[C@@H]1CCC(=O)N1 [Example 270, (3S)-4-[[8-[2-Chloro-3-[2-chloro-3-[4-fluoro-6-methoxy-5-[[[(2S)-5-oxopyrrolidin-2-yl]methylamino]methyl]-2-pyridyl]phenyl]phenyl]-4-oxo-pyrido[1,2-a]pyrimidin-3-yl]methylamino]-3-hydroxy-butanoic acid]",0.1 nM
4,"COC(=O)C[C@H](O)CNCc1cnc2cc(-c3cccc(-c4cccc(-c5cc(F)c(CNC[C@@H]6CCC(=O)N6)c(OC)n5)c4Cl)c3Cl)ccn2c1=O [Example 271, Methyl (3S)-4-[[8-[2-chloro-3-[2-chloro-3-[4-fluoro-6-methoxy-5-[[[(2S)-5-oxopyrrolidin-2-yl]methylamino]methyl]-2-pyridyl]phenyl]phenyl]-4-oxo-pyrido[1,2-a]pyrimidin-3-yl]methylamino]-3-hydroxy-butanoate]",0.1 nM
5,"COc1nc(-c2cccc(-c3cccc(-c4ccn5c(=O)c(CNC[C@H](C)O)cnc5c4)c3Cl)c2Cl)cc(F)c1CNC[C@@H]1CCC(=O)N1 [Example 272, 8-[2-Chloro-3-[2-chloro-3-[4-fluoro-6-methoxy-5-[[[(2S)-5-oxopyrrolidin-2-yl]methylamino]methyl]-2-pyridyl]phenyl]phenyl]-3-[[[(2S)-2-hydroxypropyl]amino]methyl]pyrido[1,2-a]pyrimidin-4-one]",0.2 nM
6,"COc1nc(-c2cccc(-c3cccc(-c4ccn5c(=O)c(CNCC(C)(C)CO)cnc5c4)c3Cl)c2Cl)ccc1CNC[C@@H]1CCC(=O)N1 [Example 273, (S)-8-(2,2′-dichloro-3′-(6-methoxy-5-((((5-oxopyrrolidin-2-yl)methyl)amino)methyl)pyridin-2-yl)-[1,1′-biphenyl]-3-yl)-3-(((3-hydroxy-2,2-dimethylpropyl)amino)methyl)-4H-pyrido[1,2-a]pyrimidin-4-one]",4.2 nM
7,"COc1nc(-c2cccc(-c3cccc(-c4ccn5c(=O)c(CNC[C@@H](O)CC(N)=O)cnc5c4)c3Cl)c2Cl)cc(F)c1CNC[C@@H]1CCC(=O)N1 [Example 275, (3S)-4-[[8-[2-Chloro-3-[2-chloro-3-[4-fluoro-6-methoxy-5-[[[(2S)-5-oxopyrrolidin-2-yl]methylamino]methyl]-2-pyridyl]phenyl]phenyl]-4-oxo-pyrido[1,2-a]pyrimidin-3-yl]methylamino]-3-hydroxy-butanamide]",0.1 nM
8,"CNCCCN(C)Cc1ccc(-c2cccc(-c3cccc(-c4ccn5c(=O)c(CN(C)CCNC)cnc5c4)c3Cl)c2Cl)nc1OC [Example 276, 8-(2,2′-dichloro-3′-(6-methoxy-5-((methyl(3-(methylamino)propyl)amino)methyl)pyridin-2-yl)-[1,1′-biphenyl]-3-yl)-3-((methyl(2-(methylamino)ethyl)amino)methyl)-4H-pyrido[1,2-a]pyrimidin-4-one]",90 nM
9,"COc1nc(-c2cccc(-c3cccc(-c4ccn5c(=O)c(CN(C)CCNC(=O)OC(C)(C)C)cnc5c4)c3Cl)c2Cl)ccc1CN(C)CCNC(=O)OC(C)(C)C [Example 277, tert-butyl (2-(((6-(3′-(3-(((2-((tert-butoxycarbonyl)amino)ethyl)(methyl)amino)methyl)-4-oxo-4H-pyrido[1,2-a]pyrimidin-8-yl)-2,2′-dichloro-[1,1′-biphenyl]-3-yl)-2-methoxypyridin-3-yl)methyl)(methyl)amino)ethyl)carbamate]",200 nM
10,"CNCCN(C)Cc1cnc2cc(-c3cccc(-c4cccc(-c5ccc(CNC[C@@H]6CCC(=O)N6)c(OC)n5)c4Cl)c3Cl)ccn2c1=O [Example 278, (S)-8-(2,2′-dichloro-3′-(6-methoxy-5-((((5-oxopyrrolidin-2-yl)methyl)amino)methyl)pyridin-2-yl)-[1,1′-biphenyl]-3-yl)-3-((methyl(2-(methylamino)ethyl)amino)methyl)-4H-pyrido[1,2-a]pyrimidin-4-one]",0.1 nM
11,"COc1nc(-c2cccc(-c3cccc(-c4ccn5c(=O)c(CN(C)CCN)cnc5c4)c3Cl)c2Cl)ccc1CNC[C@@H]1CCC(=O)N1 [Example 279, (S)-3-(((2-aminoethyl)(methyl)amino)methyl)-8-(2,2′-dichloro-3′-(6-methoxy-5-((((5-oxopyrrolidin-2-yl)methyl)amino)methyl)pyridin-2-yl)-[1,1′-biphenyl]-3-yl)-4H-pyrido[1,2-a]pyrimidin-4-one]",0.1 nM
12,"COc1nc(-c2cccc(-c3cccc(-c4ccn5c(=O)c(CN(C)CCO)cnc5c4)c3Cl)c2Cl)ccc1CNC[C@@H]1CCC(=O)N1 [Example 281, (S)-8-(2,2′-Dichloro-3′-(6-methoxy-5-((((5-oxopyrrolidin-2-yl)methyl)-amino)-methyl)pyridin-2-yl)-[1,1′-biphenyl]-3-yl)-3-(((2-hydroxyethyl)(methyl)amino)methyl)-4H-pyrido[1,2-a]-pyrimidin-4-one]",0.1 nM
13,"COc1nc(-c2cccc(-c3cccc(-c4ccn5ncc(CNC[C@@H]6CCC(=O)N6)c5n4)c3Cl)c2Cl)ccc1CNC[C@@H]1CCC(=O)N1 [Example 282, (S)-5-((((6-(2,2′-Dichloro-3′-(3-(((((S)-5-oxopyrrolidin-2-yl)-methyl)amino)-methyl)-pyrazolo[1,5-a]pyrimidin-5-yl)-[1,1′-biphenyl]-3-yl)-2-methoxypyridin-3-yl)methyl)-amino)methyl)-pyrrolidin-2-one]",8.7 nM
14,"COc1nc(-c2cccc(-c3cccc(-c4ccn5c(=O)c(CNC[C@@H]6CCC(=O)N6)cnc5c4)c3Cl)c2Cl)ccc1C1(CN)CC1 [Example 283, (S)-8-(3′-(5-(1-(Aminomethyl)cyclopropyl)-6-methoxypyridin-2-yl)-2,2′-dichloro-[1,1′-biphenyl]-3-yl)-3-((((5-oxopyrrolidin-2-yl)methyl)amino)methyl)-4H-pyrido[1,2-a]pyrimidin-4-one]",150 nM
15,"COc1nc(-c2cccc(-c3cccc(-c4ccn5c(=O)c(CNC[C@H]6CNC(=O)C6)cnc5c4)c3Cl)c2Cl)ccc1CNC[C@@H]1CCC(=O)N1 [Example 284, 8-(2,2′-Dichloro-3′-(6-methoxy-5-(((((S)-5-oxopyrrolidin-2-yl)methyl)-amino)methyl)-pyridin-2-yl)-[1,1′-biphenyl]-3-yl)-3-(((((S)-5-oxopyrrolidin-3-yl)methyl)amino)methyl)-4H-pyrido[1,2-a]pyrimidin-4-one]",0.1 nM
16,"COc1nc(-c2cccc(-c3cccc(-c4cc(C)c5nc(CNC[C@@H]6CCC(=O)N6)cc(=O)n5c4)c3Cl)c2Cl)ccc1CNC[C@@H]1CCC(=O)N1 [Example 288, 7-(2,2′-Dichloro-3′-(6-methoxy-5-(((((S)-5-oxopyrrolidin-2-yl)methyl)amino)methyl)pyridin-2-yl)-[1,1′-biphenyl]-3-yl)-9-methyl-2-(((((S)-5-oxopyrrolidin-2-yl)methyl)amino)methyl)-4H-pyrido[1,2-a]pyrimidin-4-one]",56 nM
17,"COC(=O)C1CN(Cc2cnc3cc(-c4cccc(-c5cccc(-c6ccc(CN7CC(C(=O)OC)C7)c(OC)n6)c5Cl)c4Cl)ncc3c2)C1 [Example 289, Methyl 1-((6-(2,2′-dichloro-3′-(3-((3-(methoxycarbonyl)azetidin-1-yl)methyl)-1,6-naphthyridin-7-yl)-[1,1′-biphenyl]-3-yl)-2-methoxypyridin-3-yl)methyl)azetidine-3-carboxylate]",9 nM
18,"COc1nc(-c2cccc(-c3cccc(-c4ccn5c(=O)c(C6=NCC(O)CN6)c(C)nc5c4)c3Cl)c2Cl)ccc1CNC[C@@H]1CCC(=O)N1 (stereo partly drawn) [Example 290, 8-(2,2′-dichloro-3′-(6-methoxy-5-(((((S)-5-oxopyrrolidin-2-yl)methyl)amino)methyl)pyridin-2-yl)-[1,1′-biphenyl]-3-yl)-3-(5-hydroxy-1,4,5,6-tetrahydropyrimidin-2-yl)-2-methyl-4H-pyrido[1,2-a]pyrimidin-4-one]",0.4 nM
19,"COC(=O)C1CN(Cc2cnc3cc(-c4cccc(-c5cccc(-c6ccc(CNC[C@@H]7CCC(=O)N7)c(OC)n6)c5Cl)c4Cl)cc(C)n3c2=O)C1 [Example 291, (S)-Methyl 1-((8-(2,2′-dichloro-3′-(6-methoxy-5-((((5-oxopyrrolidin-2-yl)methyl)amino)methyl)pyridin-2-yl)-[1,1′-biphenyl]-3-yl)-6-methyl-4-oxo-4H-pyrido[1,2-a]pyrimidin-3-yl)methyl)azetidine-3-carboxylate]",0.1 nM
20,"CNC(=O)C[C@H](O)CNCc1cnc2cc(-c3cccc(-c4cccc(-c5ccc(CNC[C@@H]6CCC(=O)N6)c(OC)n5)c4Cl)c3Cl)ccn2c1=O [Example 292, (3S)-4-[[8-[2-Chloro-3-[2-chloro-3-[6-methoxy-5-[[[(2S)-5-oxopyrrolidin-2-yl]methylamino]methyl]-2-pyridyl]phenyl]phenyl]-4-oxo-pyrido[1,2-a]pyrimidin-3-yl]methylamino]-3-hydroxy-N-methyl-butanamide]",0.1 nM
